Experiments:
colon cancer cells = test system: colon cancer cells; design: method as in PMID 33088219; conditions: treatment with the FABP4 inhibitor; cited from earlier work
FABP4 = biological target: T1, FABP4 (Homo sapiens, UniProt P15090); experiment: FABP4 Inhibitor/Ligand Screening Assay Kit: displacement of a fluorescent detection reagent; format: binding; conditions: for IC50: displacement of detection reagent from FABP4, compounds diluted in PBS pH 7.4, fluorescence em 470 nm, ex 370 nm; for FABP4 inhibitory activity, IC50 in words: summary statement in conclusions
T1 construct: purchased Cayman Chemical 10010231
T1 sequence (P15090 whole entry): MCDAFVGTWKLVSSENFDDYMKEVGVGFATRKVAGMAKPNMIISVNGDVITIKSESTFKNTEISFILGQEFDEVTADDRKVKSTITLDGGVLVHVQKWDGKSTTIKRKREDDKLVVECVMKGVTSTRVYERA
Method: FABP4 inhibitory activity was assessed by measuring the decrease in fluorescent signal of a detection reagent (DR) when displaced by a strong FABP4 ligand. […] Therefore, any effective ligand of the protein, which binds to the same binding pocket and can displace the DR, determines a reduction in the fluorescence read-out. The new molecular series was screened in a two-step procedure. Firstly, a single concentration of 5 µM was used to gain an estimation of the overall inhibitory effect of all the molecules.
To analyze the inhibitory activity of FABP4 ligands, a displacement assay was utilized as described by the Cayman’s instruction, FABP4 Inhibitor/Ligand Screening Assay Kit, Item 10,010,231 (see Supplementary Materials for additional details). The samples of compounds for activity determination were prepared as a stock solution (1 mM) in DMSO. On the day of activity assay, the compounds were all diluted in phosphate buffer solution (PBS, pH 7.4) to different concentrations (100, 50, 10, 5, 2, 1, and 0 µM). Appropriate concentrations of DMSO in PBS were used as control. The detection reagent (FABP Assay Detection Reagent, Item 10010376) was used as provided by the Cayman’s kit. The diluted Detection Reagent probe was mixed with FABP4 protein present in the kit and incubated for 10 min at room temperature. Compounds were then added and equilibrated for another 10 min. Lastly, the fluorescence signal was recorded at 470 nm (i.e., emission, with the excitation fixed at 370 nm) with a CytoFluor® Series 4000 Fluorescence Multi-Well Plate Reader.

Row | SMILES | melting point | IC50 (FABP4) | FABP4 inhibitory activity, IC50 in words (FABP4) | migration and invasion of colon cancer cells (colon cancer cells)
1 | CCc1c(-c2ccccc2)c(-c2ccccc2)nn1-c1ccccc1-c1cccc(OCC(=O)O)c1 [BMS309403] |  |  |  | weakened
2 | CCCNC(=O)c1c(-c2ccccc2)n[nH]c(=O)c1N [Compound 4b, 5-Amino-6-oxo-3-phenyl-1,6-dihydropyridazine-4-carboxylic acid propylamide] | 228 to 230 °C | 8.27 ± 0.2 µM | low micromolar range | 
3 | N#Cc1c(-c2ccccc2)nn(C2CCCCC2)c(=O)c1N [Compound 22, 5-Amino-1-cyclohexyl-6-oxo-3-phenyl-1,6-dihydropyridazine-4-carbonitrile] | 170 to 172 °C | 15.2 ± 0.76 µM | low micromolar range | 
4 | CSc1nnc(-c2ccccc2)cc1N [Compound 27, 3-Methylsulfanyl-6-phenyl-pyridazin-4-ylamine] | 168 to 170 °C | > 50 µM |  | 
5 | CC(=O)N1CCN(C(=O)c2ccc(Nc3cc(-c4ccccc4)nn(C)c3=O)cc2)CC1 [Compound 35, 4-[4-(4-Acetyl-piperazine-1-carbonyl)-phenylamino]-2-methyl-6-phenylpyridazin-3(2H)-one] | 213 to 215 °C | > 50 µM |  | 
6 | CC(=O)Nc1ccc(-c2cc(N)c(=O)n(C)n2)cc1 [Compound 44, N-[4-(5-Amino-1-methyl-6-oxo-1,6-dihydropyridazin-3-yl)-phenyl]-acetamide] | 270 to 272 °C |  |  | 
7 | Cn1nc(-c2ccccn2)cc(N)c1=O [Compound 48, 4-Amino-2-methyl-6-pyridin-2-yl-pyridazin-3(2H)-one] | 294 to 295 °C |  |  | 
8 | Cn1nc(-c2ccccn2)cc(NC(N)=O)c1=O [Compound 49, (2-Methyl-3-oxo-6-pyridin-2-yl-2,3-dihydropyridazin-4-yl)-urea] | > 300 °C |  |  | 
9 | Cn1nc(-c2ccccc2)cc(C(N)=O)c1=O [Compound 51, 2-Methyl-3-oxo-6-phenyl-2,3-dihydropyridazine-4-carboxamide] | 215 to 217 °C |  |  | 
10 | Cc1cc(N)c(=O)n(-c2ccccc2)n1 [Compound 54] |  | > 50 µM |  | 
11 | Cc1cc(NC(N)=O)c(=O)n(-c2ccccc2)n1 [Compound 55, 1-(6-Methyl-3-oxo-2-phenyl-2,3-dihydropyridazin-4-yl)urea] | 288 to 290 °C | > 50 µM |  | 
12 | Cc1nn(-c2ccccc2)c(=O)c(N)c1-c1ccn[nH]1 [Compound 57, 4-Amino-6-methyl-2-phenyl-5-(1H-pyrazol-5-yl)pyridazin-3(2H)-one] | 119 to 121 °C |  |  | 

The next lines start with results.

Row | melting point | IC50 (FABP4) | FABP4 inhibitory activity, IC50 in words (FABP4) | SMILES | migration and invasion of colon cancer cells (colon cancer cells)
13 | > 300 °C | 2.97 ± 0.26 µM | low micromolar range | Cn1nc(-c2ccccc2)cc(NC(N)=O)c1=O [Compound 25a, (2-Methyl-3-oxo-6-phenyl-2,3-dihydro-pyridazin-4-yl)urea] | 
14 | 270 to 271 °C | > 50 µM |  | CCn1nc(-c2ccccc2)cc(NC(N)=O)c1=O [Compound 25c, (2-Ethyl-3-oxo-6-phenyl-2,3-dihydro-pyridazin-4-yl)urea] | 
15 | 273 to 275 °C | > 50 µM |  | CCCn1nc(-c2ccccc2)cc(NC(N)=O)c1=O [Compound 25e, (3-Oxo-6-phenyl-2-propyl-2,3-dihydro-pyridazin-4-yl)urea] | 
16 |  | 23.2 ± 0.52 µM | low micromolar range | Cn1nc(-c2ccccc2)cc(Nc2ccccc2C#N)c1=O [Compound 30b, 2-(2-Methyl-3-oxo-6-phenyl-2,3-dihydro-pyridazin-4-ylamino)benzonitrile] | 
